The text below walks through data of US7964645B2, “Di-aromatic substituted amides as inhibitors for GlyT-1” (Hoffmann-La Roche Inc., priority 2006, dated 2011).

This test deals with T1, mGlyT-1b (Mus musculus, UniProt P28571).
T1 construct: host or cells: Flp-in-CHO
T1 sequence (P28571 1-651 isoform P28571-2): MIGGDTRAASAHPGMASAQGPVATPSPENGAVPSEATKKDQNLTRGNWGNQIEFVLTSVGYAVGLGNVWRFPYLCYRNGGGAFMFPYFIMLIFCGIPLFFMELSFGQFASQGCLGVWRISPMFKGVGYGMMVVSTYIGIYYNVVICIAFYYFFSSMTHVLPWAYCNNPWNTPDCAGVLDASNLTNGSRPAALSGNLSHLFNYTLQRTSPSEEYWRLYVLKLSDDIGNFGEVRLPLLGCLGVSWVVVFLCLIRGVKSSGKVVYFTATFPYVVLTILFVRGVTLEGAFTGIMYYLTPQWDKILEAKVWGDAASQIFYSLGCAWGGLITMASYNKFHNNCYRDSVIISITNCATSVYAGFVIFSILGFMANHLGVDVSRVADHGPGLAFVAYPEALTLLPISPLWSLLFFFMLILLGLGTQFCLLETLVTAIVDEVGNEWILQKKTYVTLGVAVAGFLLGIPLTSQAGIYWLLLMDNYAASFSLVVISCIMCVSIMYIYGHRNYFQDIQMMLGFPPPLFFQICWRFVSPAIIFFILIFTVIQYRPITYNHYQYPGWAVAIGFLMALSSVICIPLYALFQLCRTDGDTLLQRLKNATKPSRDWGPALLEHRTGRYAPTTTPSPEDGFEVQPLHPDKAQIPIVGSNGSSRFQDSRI
As to the kind of experiment: Glycine Uptake Inhibition Assay (mGlyT-1b). The following applies: [3H]-glycine uptake in Flp-in-CHO cells transfected with mGlyT-1b cDNA; 20 min at 22° C.; read-out: GlyT-1 IC50. The class given is cell-based. The procedure:
DMEM complete medium: Nutrient mixture F-12 (Gibco Life-technologies), fetal bovine serum (FBS) 5%, (Gibco life technologies), Penicillin/Streptomycin 1% (Gibco life technologies), Hygromycin 0.6 mg/ml (Gibco life technologies), Glutamine 1 mM Gibco life technologies)
Uptake buffer (UB): 150 mM NaCl, 10 mM Hepes-Tris, pH 7.4, 1 mM CaCl2, 2.5 mM KCl, 2.5 mM MgSO4, 10 mM (+) D-glucose.
Flp-in™-CHO (Invitrogen Cat n^o R758-07) cells stably transfected with mGlyT1b cDNA.
Glycine Uptake Inhibition Assay (mGlyT-1b)
On day 1 mammalian cells, (Flp-in™-CHO), transfected with mGlyT-1b cDNA, were plated at the density of 40,000 cells/well in complete F-12 medium, without hygromycin in 96-well culture plates. On day 2, the medium was aspirated and the cells were washed twice with uptake buffer (UB). The cells were then incubated for 20 min at 22° C. with either (i) no potential competitor, (ii) 10 mM non-radioactive glycine, (iii) a concentration of a potential inhibitor. A range of concentrations of the potential inhibitor was used to generate data for calculating the concentration of inhibitor resulting in 50% of the effect (e.g. IC50, the concentration of the competitor inhibiting glycine uptake of 50%). A solution was then immediately added containing [^3H]-glycine 60 nM (11-16 Ci/mmol) and 25 μM non-radioactive glycine. The plates were incubated with gentle shaking and the reaction was stopped by aspiration of the mixture and washing (three times) with ice-cold UB. The cells were lysed with scintillation liquid, shaken 3 hours and the radioactivity in the cells was counted using a scintillation counter.
Turning to `O=C(CNC(=O)c1ccccc1)NC(c1ccccc1)c1cccc(C(F)(F)F)c1` (racemic) [Example 1.30, rac-N-({[Phenyl-(3-trifluoromethyl-phenyl)-methyl]-carbamoyl}-methyl)-benzamide], the IC50 came to 54 nM.

`O=C(CNC(=O)c1ccc([N+](=O)[O-])s1)NC(c1ccccc1)c1ccc(Cl)cc1` (racemic) [Example 1.32, rac-5-Nitro-thiophene-2-carboxylic acid ({[(4-chloro-phenyl)-phenyl-methyl]-carbamoyl}-methyl)-amide]: the IC50 was 15 nM.

Regarding `N#Cc1ccc(C(=O)NCC(=O)NC(c2ccccc2)c2cccc(C(F)(F)F)c2)cc1` (racemic) [Example 1.44, rac-4-Cyano-N-({[phenyl-(3-trifluoromethyl-phenyl)-methyl]-carbamoyl}-methyl)-benzamide], the IC50 worked out at 19 nM.

As to `O=C(CNC(=O)c1ccc(F)cc1)NC(c1ccccc1)c1ccc(F)cc1` (racemic) [Example 1.69, rac-4-Fluoro-N-({[(4-fluoro-phenyl)-phenyl-methyl]-carbamoyl}-methyl)-benzamide], the IC50 was found to be 88 nM.

On to `O=C(CNC(=O)c1ccc(F)cc1)NC(c1ccccc1)c1cc(F)cc(F)c1` (racemic) [Example 1.72, rac-N-({[(3,5-Difluoro-phenyl)-phenyl-methyl]-carbamoyl}-methyl)-4-fluoro-benzamide], for which the IC50 was 25 nM.

Consider `O=C(CNC(=O)c1ccc(F)cc1)NC(c1ccc(Cl)cc1)c1cccc(C(F)(F)F)c1` (racemic) [Example 1.76, rac-N-({[(4-Chloro-phenyl)-(3-trifluoromethyl-phenyl)-methyl]-carbamoyl}-methyl)-4-fluoro-benzamide], for which the IC50 turned out to be 74 nM.

Turning to `O=C(CNC(=O)c1ccc(F)cc1)NC(c1ccc(F)cc1)c1cccc(C(F)(F)F)c1` (racemic) [Example 1.77, rac-4-Fluoro-N-({[(4-fluoro-phenyl)-(3-trifluoromethyl-phenyl)-methyl]-carbamoyl}-methyl)-benzamide], the IC50 stood at 48 nM.

As to `Cc1ccc(C(NC(=O)CNC(=O)c2ccc(F)cc2)c2cccc(C(F)(F)F)c2)cc1` (racemic) [Example 1.78, rac-4-Fluoro-N-({[p-tolyl-(3-trifluoromethyl-phenyl)-methyl]-carbamoyl}-methyl)-benzamide], the IC50 was determined as 58 nM.

Take `Cc1ccc(C(=O)NCC(=O)NC(c2cccc(F)c2)c2cccc(F)c2)s1` [Example 1.86, 5-Methyl-thiophene-2-carboxylic acid ({[bis-(3-fluoro-phenyl)-methyl]-carbamoyl}-methyl)-amide]: the concentration for half-maximal inhibition (IC50) was 42 nM.

Consider `O=C(CNC(=O)c1ccsc1)NC(c1cccc(F)c1)c1cccc(F)c1` [Example 1.98, Thiophene-3-carboxylic acid ({[bis-(3-fluoro-phenyl)-methyl]-carbamoyl}-methyl)-amide], for which the IC50 was found to be 28 nM.
